compound: CC1=C(C(=NN1)C)CC2=C(C3=C(S2)N(C(=O)N(C3=O)C)CC(C)C)C(=O)N4C[C@@H](CO4)O + Nc1nc2[nH]cc(CCc3ccc(C(=O)N[C@@H](CCC(=O)O)C(=O)O)cc3)c2c(=O)[nH]1 [Pemetrexed] (partner 0.2 µM); experiment: relative viability (nuclei count vs DMSO), 5 days (fraction); higher = more cells survive; conditions: first compound 0.25 µM
How it was run: (§1)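 Relative viability divides the nuclei count in treated wells by that in vehicle wells. Lung cancer cell lines were seeded in 1536-well plates, dosed by pin tool the next day, and fixed and stained after 5 days in one step with final 0.05% Triton X-100, 1% formaldehyde and 1 ug/ml Hoechst. Dosing was a single drug or a fixed anchor-drug dose plus five library-drug doses (not always all listed) in √10 steps, and values are medians of duplicate plates imaged at 4×.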

Cell Line | relative viability
EPLC-272H | 0.348
NCI-H2228 | 0.324
NCI-H1355 | 0.927

compound: Cc1ccccc1C(C(=O)NC1CCCCC1)N(C(=O)Cn1ccnc1C)c1cccc(F)c1 [IDH-C35] + CC(C)C[C@H](NC(=O)[C@H](Cc1ccccc1)NC(=O)c1cnccn1)B(O)O [Bortezomib] (partner 0.002 µM); experiment: as above; conditions: first compound 0.08 µM
How it was run: as §1

Cell Line | relative viability
H3255 | 0.682
COR-L23 | 0.927
COR-L 105 | 0.902
LOU-NH91 | 0.574
ChaGo-K-1 | 0.956
NCI-H2405 | 1
HOP-62 | 0.725
LU99A | 1.14
BEN | 0.897
HARA | 1.18
HCC-78 | 0.581
NCI-H322M | 1.22
LCLC-97TM1 | 0.616
NCI-H2009 | 1.13
A-427 | 0.977
NCI-H441 | 0.524

Cell Line | relative viability
NCI-H661 | 0.953
NCI-H1734 | 1.06
NCI-H460 | 1.2
NCI-H2347 | 0.912
SK-LU-1 | 1.34
201T | 1.09
NCI-H1915 | 0.939
HCC-827 | 1.07
LXF-289 | 0.984
NCI-H23 | 0.977
NCI-H647 | 1.08
CAL-12T | 0.975
NCI-H1651 | 0.884
EPLC-272H | 0.906
NCI-H2228 | 0.968
NCI-H1355 | 1.21

same assay, conditions: first compound 0.253 µM

Cell Line | relative viability
H3255 | 0.856
COR-L23 | 0.995
COR-L 105 | 0.943
LOU-NH91 | 0.485
ChaGo-K-1 | 0.942
NCI-H2405 | 1
HOP-62 | 0.77
LU99A | 1.1
BEN | 0.921
HARA | 1.04
HCC-78 | 0.521
NCI-H322M | 1.17
LCLC-97TM1 | 0.691
NCI-H2009 | 1.01
A-427 | 1.04
NCI-H661 | 0.809

Cell Line | relative viability
NCI-H1734 | 1.17
NCI-H460 | 1.18
NCI-H2347 | 1.02
SK-LU-1 | 1.33
201T | 1.1
NCI-H1915 | 0.977
HCC-827 | 1.02
LXF-289 | 1
NCI-H23 | 0.836
NCI-H647 | 0.805
CAL-12T | 0.863
NCI-H1651 | 0.999
EPLC-272H | 0.962
NCI-H2228 | 0.857
NCI-H1355 | 1.15

same assay, conditions: first compound 0.8 µM

Cell Line | relative viability
H3255 | 0.816
COR-L23 | 1.01
COR-L 105 | 0.752
LOU-NH91 | 0.519
ChaGo-K-1 | 1.09
NCI-H2405 | 0.97
HOP-62 | 0.73
LU99A | 1.1
BEN | 0.799
HARA | 1.13
HCC-78 | 0.587
NCI-H322M | 1.15
LCLC-97TM1 | 0.53
